How the values were obtained:
Assay type in all cases: in vivo
Aeschynomene indica [1] = test: Herbicidal activity test, pre-weeds emergence treatment; conditions: Table 4, 200 g/ha, assessed 2 to 3 weeks after spraying, scale 0-10 (0: no effect, 10: complete death)
Description: (§1) A rectangular plastic pot with a surface area of 300 cm^2 was filled with sandy loam soil and mixed soil at a ratio of 1:1, and four kinds of weeds including Quamoclit pennata, Abutilon theophrasti Medicus, and Aeschynomene indica, Xanthium strumarium were sown therein. In another pot made in the same way, three kinds of crop seeds including maize, wheat, and rice were sown. The pots were watered and one day later, a medicament was sprayed thereon. The spraying was performed by using a track sprayer (R&D Sprayer, USA) equipped with Teejet 8002EVS (Spraying Systems Co., USA) nozzle, and the spray amount was controlled to be 1000 L/ha. A spray solution was prepared by dissolving the compound of each example or a control material in acetone, and then, adding the same amount of 0.1% (v/v) tween 20 aqueous solution thereto. The spray amount was 200 g/ha. The pots were placed in a greenhouse in which the temperature was maintained at 25° C. to 30° C. during the day and 15° C. to 25° C. during the night, and was regularly watered. After 2 to 3 weeks from the spraying of the compounds or the control material, the efficacy and the damages on each weed and each crop were assessed according to the scale of 0-10 (0: no effect, 10: complete death) scale and the results are shown in Table 3 below.
(§2) Pots for crops and weeds were prepared in the same manner as the test method illustrated in Table 3, and three kinds of weeds selected from Quamoclit pennata, Abutilon theophrasti Medicus, and Aeschynomene indica, Xanthium strumarium were used.

[2] = tested on: Abutilon theophrasti Medicus; test: as above; conditions: Table 4, 200 g/ha, assessed 2 to 3 weeks after spraying, scale 0-10 (0: no effect, 10: complete death)
Description: as §1, §2

Quamoclit pennata [3] = test: as above; conditions: Table 4, 200 g/ha, assessed 2 to 3 weeks after spraying, scale 0-10 (0: no effect, 10: complete death)
Description: as §1, §2

Xanthium strumarium [4] = test: as above; conditions: Table 4, 200 g/ha, assessed 2 to 3 weeks after spraying, scale 0-10 (0: no effect, 10: complete death)
Description: as §1, §2

wheat [5] = test: Herbicidal activity test, post-weeds emergence treatment (crop damage); conditions: spray amount 200 g/ha for crops, assessed after 2 to 3 weeks, 0: no effect, 10: complete death, Table 6
Description: as §1
(§3) Pots for crops and weeds were prepared in the same manner as in Experimental Example 1, and then, when the crops and the weeds were raised up to 2 weeks roughly on a third-leaf stage, the compounds and the control material were sprayed thereon in the same manner as described above. The spray amount was 200 g/ha. After 2 to 3 weeks from the spraying of the test substance or the control substance, the efficacy and the damages on each weed and each crop were assessed according to the scale of 0-10 (0: no effect, 10: complete death) scale.
as §2, with “5,” for “3,”, “four” for “three”, “used. The spray amount was 200 g/ha for crops and 50 g/ha for weeds.” for “used.”

maize [6] = test: as above; conditions: spray amount 200 g/ha for crops, assessed after 2 to 3 weeks, 0: no effect, 10: complete death, Table 6
Description: as §1, §3
as §2, with “5,” for “3,”, “four” for “three”, “used. The spray amount was 200 g/ha for crops and 50 g/ha for weeds.” for “used.”

rice [7] = test: as above; conditions: spray amount 200 g/ha for crops, assessed after 2 to 3 weeks, 0: no effect, 10: complete death, Table 6
Description: as §1, §3
as §2, with “5,” for “3,”, “four” for “three”, “used. The spray amount was 200 g/ha for crops and 50 g/ha for weeds.” for “used.”

wheat [8] = test: Herbicidal activity test, pre-weeds emergence treatment (crop damage); conditions: Table 4, 200 g/ha, assessed 2 to 3 weeks after spraying, scale 0-10 (0: no effect, 10: complete death)
Description: as §1, §2

maize [9] = test: as above; conditions: Table 4, 200 g/ha, assessed 2 to 3 weeks after spraying, scale 0-10 (0: no effect, 10: complete death)
Description: as §1, §2

rice [10] = test: as above; conditions: Table 4, 200 g/ha, assessed 2 to 3 weeks after spraying, scale 0-10 (0: no effect, 10: complete death)
Description: as §1, §2

Aeschynomene indica [11] = test: Herbicidal activity test, post-weeds emergence treatment; conditions: spray amount 50 g/ha for weeds, assessed after 2 to 3 weeks, 0: no effect, 10: complete death, Table 6
Description: as §1, §3
as §2, with “5,” for “3,”, “four” for “three”, “used. The spray amount was 200 g/ha for crops and 50 g/ha for weeds.” for “used.”

[12] = tested on: Abutilon theophrasti Medicus; test: as above; conditions: spray amount 50 g/ha for weeds, assessed after 2 to 3 weeks, 0: no effect, 10: complete death, Table 6
Description: as §1, §3
as §2, with “5,” for “3,”, “four” for “three”, “used. The spray amount was 200 g/ha for crops and 50 g/ha for weeds.” for “used.”

Quamoclit pennata [13] = test: as above; conditions: spray amount 50 g/ha for weeds, assessed after 2 to 3 weeks, 0: no effect, 10: complete death, Table 6
Description: as §1, §3
as §2, with “5,” for “3,”, “four” for “three”, “used. The spray amount was 200 g/ha for crops and 50 g/ha for weeds.” for “used.”

Xanthium strumarium [14] = test: as above; conditions: spray amount 50 g/ha for weeds, assessed after 2 to 3 weeks, 0: no effect, 10: complete death, Table 6
Description: as §1, §3
as §2, with “5,” for “3,”, “four” for “three”, “used. The spray amount was 200 g/ha for crops and 50 g/ha for weeds.” for “used.”

SMILES | PRE AESIN (Aeschynomene indica), efficacy score (Aeschynomene indica [1]) | PRE ABUTH (Abutilon theophrasti Medicus), efficacy score [2] | PRE IPOAN (Quamoclit pennata), efficacy score (Quamoclit pennata [3]) | PRE XANST (Xanthium strumarium), efficacy score (Xanthium strumarium [4]) | TRZAW (wheat) damage, scale of 0-10 (wheat [5]) | ZEAMX (maize) damage, scale of 0-10 (maize [6]) | ORYSA (rice) damage, scale of 0-10 (rice [7]) | PRE TRZAW (wheat), damage score (wheat [8]) | PRE ZEAMX (maize), damage score (maize [9]) | PRE ORYSA (rice), damage score (rice [10]) | AESIN (Aeschynomene indica) herbicidal efficacy, scale of 0-10 (Aeschynomene indica [11]) | ABUTH (Abutilon theophrasti Medicus) herbicidal efficacy, scale of 0-10 [12] | IPOAN (Quamoclit pennata) herbicidal efficacy, scale of 0-10 (Quamoclit pennata [13]) | XANST (Xanthium strumarium) herbicidal efficacy, scale of 0-10 (Xanthium strumarium [14])
COc1ccc(COC(=O)c2nc(C3CC(Br)=NO3)cc(N)c2Cl)cc1 (stereo not drawn) [Compound 89, 4-methoxybenzyl 4-amino-6-(3-bromo-4,5-dihydroisoxazol-5-yl)-3-chloropicolinate] | 10 | 8 | 8 | 10 | 0 | 0 | 0 | 0 | 0 | 0 | 8 | 6 | 5 | 9
Nc1cc(C2CC(Br)=NO2)nc(C(=O)OCc2ccc(F)cc2)c1Cl (stereo not drawn) [Compound 90, 4-fluorobenzyl 4-amino-6-(3-bromo-4,5-dihydroisoxazol-5-yl)-3-chloropicolinate] | 10 | 3 | 3 | 7 | 0 | 0 | 0 | 0 | 0 | 0 | 7 | 5 | 4 | 10
Nc1cc(C2CC(Br)=NO2)nc(C(=O)OCc2ccc(Br)cc2)c1Cl (stereo not drawn) [Compound 91, 4-bromobenzyl 4-amino-6-(3-bromo-4,5-dihydroisoxazol-5-yl)-3-chloropicolinate] | 6 | 10 | 2 | 6 | 0 | 0 | 0 | 0 | 0 | 0 | 6 | 5 | 5 | 10
